Source: paper PMC12305494, “Discovery of PXR Antagonist MI891 and PXR Degrader MI1013 and Their Roles in Hepatic Gene Regulation” (Journal of Medicinal Chemistry, 2025)

Experiments:
GSPT1 = target: T1, GSPT1 (Homo sapiens, UniProt P15170); experiment: Western blot of GSPT1 in HepaRG cells; assay type: cell-based; conditions: 24 h
T1 construct: GSPT1 protein expression in HepaRG cells treated with different concentrations of MI1013 and MI1155 for 24 h; endogenous in cells; host or cells: HepaRG
Experimental: (§1) The harvested HepaRG cells were lysed in RIPA lysis buffer (Cat. no 89900, Thermo Scientific) containing Halt protease inhibitor cocktail inhibitors (Thermo Scientific). Protein concentration was measured using the Pierce BCA Protein Assay Kit (Cat. no. 23225, Thermo Scientific), samples were diluted in 4 × Laemmli sample buffer (Cat. no. 1610747, BioRad) supplemented with mercaptoethanol and heated at 95 °C for 5 min. Equal amounts of protein were loaded in 4–20% Mini-PROTEAN TGX Stain-Free Protein Gels (12 well. cat. no. 4561095 or 15 well, cat. no. 4568096, Bio-Rad), electrophorised, and transferred onto Trans-Blot Turbo Midi-size PVDF Membrane (cat. no. 1704273, Bio-Rad), and blocked with EveryBlot Blocking buffer for 10 min (cat. no. 12010020, Bio-Rad). […] Chemiluminescence signals were detected using SuperSignal West Femto Maximum Sensitivity Substrate (cat. no. 34096, Thermo Scientific) and visualized by the ChemiDoc MP Imaging system (Universal Hood III, #731BR02821, Bio-Rad), and the bands were quantified using β-actin (1:2000, recombinant rabbit conjugated monoclonal antibody (JF53-10), cat. no. MA5-32540, Invitrogen) as loading control with ImageJ (version 1.54g) software.

RXRα = experiment: Western blot of RXRα in HepaRG cells; assay type: cell-based, human; conditions: 24 h
Experimental: as §1

[1] = system: primary human hepatocytes; experiment: RT-qPCR gene expression in primary human hepatocytes; assay type: cell-based; conditions: PHH, MI891 5 μM
Experimental: Cryopreserved human hepatocytes from three donors were purchased from BioIVT (Westbury, New York, USA). The characteristics of the donors were as follows: donor 1, donor 2, donor 3 - person. PHHs were seeded in PHH medium supplemented with 10% fetal bovine serum at a density of 350,000 cells per well of rat tail collagen type I-coated 24-well plates (catalog number 354408, Corning, New York, USA). Cultivation medium was replaced with serum-free PHH medium 2 h later. […] Rifampicin, SPA70, and dimethyl sulfoxide (DMSO) were all purchased from Sigma-Aldrich (St. Louis, Missouri, USA, now part of Merck).
RT-qPCR was utilized to investigate gene expression in HepaRG and PHH. Total RNA was extracted from these cells using the phenol–chloroform method. The concentration of the isolated RNA was then measured using a Nanodrop 1000 spectro-photometer (Thermo Fisher Scientific).
Following RNA isolation, reverse transcription was performed to convert RNA into complementary DNA (cDNA). This step was carried out using the High-capacity cDNA reverse transcription kit (Cat. No. 4374966, ThermoFisher Scientific). The resulting cDNA served as the template for subsequent qPCR reactions.
The qPCR reactions were conducted on the QuantStudio 6 Flex Real-Time PCR System (ThermoFisher Scientific, Waltham, Mas-sachusetts). For these reactions, TaqMan Universal master mix II (Cat. No. 4440047, ThermoFisher Scientific) and TaqMan assays (FAM) utilized in this study are detailed in the Supporting Information. To quantify gene expression, the cycle threshold (Ct) values of the target genes were normalized to the Ct values of reference genes HPRT1 or GAPDH (HepaRG) or TBP (PHH). The normalized values were then expressed as fold changes (2−ΔΔCt) relative to the DMSO control at the specified time points, with the control set as 1.

human CAR LBD = target: T2, human CAR LBD (Homo sapiens, UniProt Q14994); experiment: CAR LBD assembly assay (CAR AA); assay type: cell-based
T2 construct: constructs encoding helices 3–12 and helix 1 of human CAR LBD; expressed in transfected cells; host or cells: HepG2
T2 sequence (Q14994 103-150 isoform Q14994-2 limits assumed): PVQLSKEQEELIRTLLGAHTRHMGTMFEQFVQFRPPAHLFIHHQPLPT
T2 sequence (Q14994 151-348 isoform Q14994-2 limits assumed): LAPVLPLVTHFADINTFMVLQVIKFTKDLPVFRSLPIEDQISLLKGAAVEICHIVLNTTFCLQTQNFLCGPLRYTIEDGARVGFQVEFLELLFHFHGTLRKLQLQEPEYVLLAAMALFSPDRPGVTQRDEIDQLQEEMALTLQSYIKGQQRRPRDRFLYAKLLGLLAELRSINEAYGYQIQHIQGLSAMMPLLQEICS
Excerpt: The CAR LBD assembly assay used constructs encoding helices 3–12 and helix 1 of human CAR LBD as described before. GL4.31[luc2P/GAL4UAS/Hygro] (pGAL4 UAS-luc) luciferase reporter vector and pRL-TK Renilla expression vector (Promega) were used in the assay in HepG2 cells transfected using Lipofectamine 3000.

LXRα = target: T3, LXRα (Homo sapiens, UniProt Q13133); experiment: LXRα luciferase reporter assay, agonistic and antagonistic setups; assay type: cell-based; conditions: prototype ligand GW3965
T3 construct: expressed in transfected cells
Experimental: For the farnesoid X receptor (FXR) luciferase gene reporter assay, the full-length expression vector was paired with pFXRE-luc luciferase construct. The p1A1-luc construct was used in the aryl hydrocarbon receptor (AhR) assays with pRL-TK for normalization. Gal4-LXR-α/β, and Gal4-PPAR-γ constructs were used with the pGAL4 UAS-luc construct. For the VDR assay, expression vector pSG5-hVDR together with pVDRE-luc constructs was used. Firefly and Renilla luciferase activities were analyzed using a Dual reporter assay (Promega). For the nuclear receptor assays, prototype ligands were used at the following concentrations: Calcitriol for VDR (100 nM), GW3965 for LXRα and LXRβ (10 μM), 6-OCA for FXR (1 μM), fenofibrate for PPARα (10 μM), estradiol for ERα and β (10 μM), rosiglitazone for PPARγ (10 μM), 3-MC for AhR (5 μM), and TCPOBOP for mCAR (10 μM). Detailed descriptions and protocols are detailed in our recent publication. ,

T3 sequence (Q13133 209-447 limits assumed): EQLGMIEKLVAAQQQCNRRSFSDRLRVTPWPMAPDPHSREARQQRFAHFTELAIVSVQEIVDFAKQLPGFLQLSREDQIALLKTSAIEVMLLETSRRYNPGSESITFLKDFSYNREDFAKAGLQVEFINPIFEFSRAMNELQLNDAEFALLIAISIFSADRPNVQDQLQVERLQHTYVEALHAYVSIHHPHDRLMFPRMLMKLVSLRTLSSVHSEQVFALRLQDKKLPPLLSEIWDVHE
T1 sequence (Q96SW2 whole entry partner): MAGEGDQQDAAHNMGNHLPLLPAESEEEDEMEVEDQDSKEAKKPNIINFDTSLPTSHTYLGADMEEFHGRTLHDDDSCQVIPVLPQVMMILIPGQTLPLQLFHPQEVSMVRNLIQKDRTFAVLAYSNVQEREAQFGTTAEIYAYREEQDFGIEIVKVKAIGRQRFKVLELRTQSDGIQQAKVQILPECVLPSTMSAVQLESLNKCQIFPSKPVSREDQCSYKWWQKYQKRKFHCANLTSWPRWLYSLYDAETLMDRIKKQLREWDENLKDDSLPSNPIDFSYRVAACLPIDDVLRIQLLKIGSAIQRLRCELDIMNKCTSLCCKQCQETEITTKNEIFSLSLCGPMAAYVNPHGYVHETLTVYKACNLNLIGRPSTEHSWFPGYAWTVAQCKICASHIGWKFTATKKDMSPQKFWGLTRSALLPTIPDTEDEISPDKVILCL
T1 sequence (P15170 whole entry): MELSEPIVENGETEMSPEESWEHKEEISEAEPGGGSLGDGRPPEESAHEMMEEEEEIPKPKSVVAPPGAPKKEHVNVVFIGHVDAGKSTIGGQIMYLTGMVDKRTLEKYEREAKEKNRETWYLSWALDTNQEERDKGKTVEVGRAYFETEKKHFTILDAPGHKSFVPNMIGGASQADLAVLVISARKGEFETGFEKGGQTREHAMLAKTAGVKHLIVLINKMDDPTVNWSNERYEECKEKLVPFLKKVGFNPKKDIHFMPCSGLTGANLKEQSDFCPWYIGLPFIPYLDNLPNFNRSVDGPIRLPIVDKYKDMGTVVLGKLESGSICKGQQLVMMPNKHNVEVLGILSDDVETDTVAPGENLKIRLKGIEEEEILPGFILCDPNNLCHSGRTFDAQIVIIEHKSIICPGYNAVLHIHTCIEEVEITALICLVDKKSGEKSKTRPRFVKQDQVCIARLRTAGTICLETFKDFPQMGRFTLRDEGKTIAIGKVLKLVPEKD

Row | GSPT1 degradation (GSPT1) | CYP7A1, HMGCS2, PCK1 and MKI67 mRNA ([1]; in the presence and absence of rifampicin) | CYP2B6 mRNA ([1]; all donors) | Compound | RXRα degradation (RXRα) | CYP3A4 mRNA expression ([1]; three donors, rifampicin 10 μM, 48 h) | activation of CAR LBD assembly (human CAR LBD; at 10 μM concentration) | EC50 (human CAR LBD; na = no activity, tox = cytotoxicity in HepG2 cells) | agonistic or antagonistic activity on LXRα (LXRα)
1 | does not degrade | – | – | N-(4-((1-(2,5-dimethoxyphenyl)-5-methyl-1H-1,2,3-triazol-4-yl)sulfonyl)phenyl)-3-(2-(2-(2-(4-(((2-(2,6-dioxopiperidin-3-yl)-1,3-dioxoisoindolin-4-yl)amino)methyl)-1H-1,2,3-triazol-1-yl)ethoxy)ethoxy)ethoxy)propenamide [Compound 36] | does not degrade | – | – | – | –
2 | – | significant downregulation | may slightly upregulate | NC(=O)c1cc(Cn2cc(-c3c(-c4ccc(Cl)cc4)nc4c(F)cc(F)cn34)nn2)ccc1Cl [Compound 11, 2-Chloro-5-((4-(2-(4-chlorophenyl)-6,8-difluoroimidazo[1,2-a]pyridin-3-yl)-1H-1,2,3-triazol-1-yl)methyl)-benzamide] | – | suppressed the expression of CYP3A4 mRNA and attenuated its induction by rifampicin | lack of significant (p value 0.07) activation | > 10 µM | no significant agonistic or antagonistic activities
